Data from PubChem BioAssay (NCI).
“And” between values parts separate entries of the source, which are not always exact repeats. Identical values can stand only once.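 Briefly, cells in 96-well plates were exposed to five compound concentrations for 48 h, and endpoints were estimated by linear interpolation. The concentration for 50% growth inhibition is given as GI50. At the TGI there is no net growth.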

Experiments:
Assay in all cases: NCI anticancer screen, dose series, 48 h
[1] = system: NCI-H23 lung
[2] = system: MOLT-4 leukemia
[3] = system: MALME-3M melanoma
[4] = system: IGROV1 ovarian
[5] = system: 786-0 renal
[6] = system: TK-10 renal
[7] = system: SK-MEL-2 melanoma
[8] = system: RXF 393 renal
[9] = system: K-562 leukemia
[10] = system: SN12C renal

| SMILES | TGI [1] | TGI [2] [µM] | TGI [3] | TGI [4] [µM] | TGI [5] | TGI [6] | TGI [7] | TGI [8] | TGI [9] [µM] | TGI [10] [µM] | GI50 [1] | GI50 [2] [µM] | GI50 [3] | GI50 [4] | GI50 [5] | GI50 [6] | GI50 [7] | GI50 [8] | GI50 [9] | GI50 [10] |
| --- | --- | --- | --- | --- | --- | --- | --- | --- | --- | --- | --- | --- | --- | --- | --- | --- | --- | --- | --- | --- |
| CCC1CN2CCc3cc(OC)c(OC)cc3C2CC1CC1c2cc(OC)c(OC)cc2CCN1C(=O)CNC(=O)OC(C)(C)C (stereo not given) | 56.1 µM | 23.1 | 39.6 µM | 74.6 | 21.2 µM | 85.5 µM | 33.1 µM | 51.2 µM | 14.9 | 90 | – | – | – | – | – | – | – | – | – | – |
| O=C(O)CCC1CCc2cccc3occ1c23 (stereo not given) | > 100 µM | > 100 | > 100 µM | > 100 | > 100 µM | > 100 µM | > 100 µM | > 100 µM | > 100 | > 100 | – | – | – | – | – | – | – | – | – | – |
| C/C(=N\NC(N)=O)C(CN(C)C)C(c1ccccc1)c1c(O)c2ccccc2oc1=O (stereo not given) | > 100 µM | > 100 | > 100 µM | > 100 | > 100 µM | > 100 µM | > 100 µM | > 100 µM | > 100 | > 100 | – | – | – | – | – | – | – | – | – | – |
| C/C=C(/CCCCNCCCC)[Si](C)(C)C | 31.9 µM | 31.2 | 33.2 µM | 37 | 25.5 µM | 28.6 µM | 33.1 µM | 21 µM | 45 | 30.5 | – | – | – | – | – | – | – | – | – | – |
| CCCCCc1c(C)[nH]c(/C=C2\N=C(c3ccc[nH]3)C=C2Oc2ccc(Cl)cc2)c1C | 3.25 µM and 2.62 µM | 1.88 | 1.6 µM and 1.54 µM | 50.9 | 0.326 µM and 0.512 µM | 5.45 µM and 0.921 µM | 0.23 µM and 0.108 µM | 0.672 µM and 0.722 µM | > 100 | 1.92 | 0.16 µM and 0.0739 µM | 0.064 | 0.337 µM and 0.129 µM | 0.204 µM and 0.129 µM | 0.0763 µM and 0.0461 µM | 0.413 µM and 0.0539 µM | 0.0578 µM and 0.0293 µM | 0.0678 µM and 0.123 µM | 0.0485 µM and 0.0367 µM | 0.112 µM and 0.0549 µM |
| C=C(N=[N+]=[N-])c1cn(C2CC(O)C(CO)O2)c(=O)[nH]c1=O (stereo not given) | > 100 µM | > 100 | > 100 µM | > 100 | > 100 µM | > 100 µM | > 100 µM | > 100 µM | > 100 | > 100 | – | – | – | – | – | – | – | – | – | – |
| C[C@H](CS(C)(=O)=O)Nc1ncc2cc(Oc3ccc(F)cc3F)c(=O)n(C)c2n1 | > 25 µM | > 25 | > 25 µM | > 25 | > 25 µM | > 25 µM | > 25 µM | > 25 µM | > 25 | > 25 | > 25 µM | > 25 | > 25 µM | > 25 µM | > 25 µM | > 25 µM | > 25 µM | > 25 µM | > 25 µM | > 25 µM |
| O=c1[nH]cc(OCC(F)(F)F)c(=O)[nH]1 | > 100 µM | > 100 | > 100 µM | > 100 | > 100 µM | > 100 µM | > 100 µM | > 100 µM | > 100 | > 100 | – | – | – | – | – | – | – | – | – | – |
| CCCCC[C@H]1C/C=C2/C(=O)C(Cl)=C[C@@H]2C/C=C\CCCC(=O)O[C@@H](CCCCC)C/C=C2/C(=O)C(Cl)=C[C@@H]2C/C=C\CCCC(=O)O1 | 0.838 µM | 1.71 | 1.85 µM | 0.958 | 0.622 µM | 1.6 µM | 0.918 µM | 0.576 µM | 2.29 | 2.72 | 0.34 µM | 0.234 | 0.504 µM | 0.342 µM | 0.28 µM | 0.508 µM | 0.362 µM | 0.297 µM | 0.314 µM | 0.482 µM |
| CC(C)=CC(=O)CC(=O)C(=O)Nc1ccc(Cl)c(Cl)c1 | > 100 µM | > 100 | > 100 µM | > 100 | > 100 µM | > 100 µM | > 100 µM | > 100 µM | > 100 | > 100 | – | – | – | – | – | – | – | – | – | – |
| Cc1cccc(C(C)(C)C)c1NC(=O)C(=O)C(c1cnc2ccccc2n1)[N+](=O)[O-] (stereo not given) | > 100 µM | > 100 | > 100 µM | > 100 | > 100 µM | > 100 µM | > 100 µM | > 100 µM | > 100 | > 100 | – | – | – | – | – | – | – | – | – | – |
| CN(C)C(=O)C1CCC(=C2C(=O)OC(C)(C)OC2=O)N1C (stereo not given) | > 100 µM | > 100 | > 100 µM | > 100 | > 100 µM | > 100 µM | > 100 µM | > 100 µM | > 100 | > 100 | – | – | – | – | – | – | – | – | – | – |
| COc1ccc(COCC(Cn2ccnc2)OCc2ccc(C(=O)O)cc2)cc1 (stereo not given) | > 100 µM | > 100 | > 100 µM | > 100 | > 100 µM | > 100 µM | > 100 µM | > 100 µM | > 100 | > 100 | – | – | – | – | – | – | – | – | – | – |
| Nc1nc(Nc2cccc(F)c2)nc2ccccc12 | > 100 µM | > 100 | 37.5 µM | > 100 | 33.6 µM | 90.3 µM | 48.8 µM | 45.3 µM | > 100 | > 100 | 24.1 µM | 14.6 | 18.6 µM | 38.7 µM | 17.4 µM | 39.3 µM | 25.3 µM | 16.9 µM | 24.9 µM | 32.8 µM |
| CC1CC2(CC[C@@H]1O)OCCO2 (stereo not given in full) | > 100 µM | > 100 | > 100 µM | > 100 | > 100 µM | > 100 µM | > 100 µM | > 100 µM | > 100 | > 100 | – | – | – | – | – | – | – | – | – | – |
| CC(=O)C1=C([O-])C(C)OC1=O.CC(=O)C1=C([O-])C(C)OC1=O.[NH-]C1CCCC[C@H]1[NH-].[Pt+4] (stereo not given) | > 100 µM | 53.9 | > 100 µM | > 100 | > 100 µM | > 100 µM | > 100 µM | > 100 µM | > 100 | > 100 | 47.5 µM | 3.9 | 48 µM | > 100 µM | 9.67 µM | > 100 µM | > 100 µM | > 100 µM | 61.2 µM | 41.6 µM |
| CCc1c[nH]c2ncnc(N3CC[C@@](N)(CNC(=O)c4ccc(F)cc4F)C3)c12 | > 100 µM | > 81.2 | > 91.2 µM | > 94.9 | > 85.5 µM | > 83.9 µM | > 100 µM | 35.9 µM | > 100 | > 100 | 26.4 µM | 18.7 | 33.4 µM | 20.1 µM | 25.9 µM | 22.2 µM | 35.5 µM | 7.16 µM | 48.3 µM | 32.1 µM |
